From the NIST ThermoML archive (doi:10.1021/je030215z)

Tests used:
[1] = 298.15 K; 101.33 kPa; Liquid
[2] = excess molar enthalpy (molar enthalpy of mixing); xn = mol fraction of the nth substance listed; conditions: 298.15 K, 101.33 kPa, Liquid, Flow calorimetry

CCCCCCCCCC [decane]
Conditions	mass density [kg/m3]
[1]	726.3

CCCCCCCCCCCC [dodecane]
Conditions	mass density [kg/m3]
[1]	745.32

CCCCCCC [heptane]
Conditions	mass density [kg/m3]
[1]	680.17

C=CCCCC [hex-1-ene]
Conditions	mass density [kg/m3]
[1]	668.73

C=CCCCC [hex-1-ene] + CCCCCCC
[2]
Conditions	excess molar enthalpy [kcal/mol]
x1 = 0.05	0.00266
x1 = 0.1	0.00507
x1 = 0.1499	0.00724
x1 = 0.1998	0.00898
x1 = 0.2496	0.0107
x1 = 0.2998	0.0121
x1 = 0.35	0.0131
x1 = 0.3984	0.0141
x1 = 0.4492	0.0146
x1 = 0.5005	0.0147
x1 = 0.5498	0.0147
x1 = 0.6	0.0143
x1 = 0.6496	0.0135
x1 = 0.6992	0.0126
x1 = 0.7497	0.0113
x1 = 0.8	0.00988
x1 = 0.8499	0.0079
x1 = 0.9	0.00559
x1 = 0.95	0.0028

C=CCCCC [hex-1-ene] + CCCCCCCC
[2]
Conditions	excess molar enthalpy [kcal/mol]
x1 = 0.05	0.00272
x1 = 0.1	0.00532
x1 = 0.15	0.0078
x1 = 0.2036	0.00995
x1 = 0.2496	0.0115
x1 = 0.3	0.0131
x1 = 0.3497	0.0143
x1 = 0.3998	0.0153
x1 = 0.45	0.0158
x1 = 0.5	0.0162
x1 = 0.5499	0.0161
x1 = 0.5994	0.0157
x1 = 0.65	0.015
x1 = 0.6998	0.014
x1 = 0.7501	0.0126
x1 = 0.8002	0.0108
x1 = 0.8499	0.00882
x1 = 0.9	0.00628
x1 = 0.95	0.00332

C=CCCCC [hex-1-ene] + CCCCCCCCCC
[2]
Conditions	excess molar enthalpy [kcal/mol]
x1 = 0.05	0.00385
x1 = 0.1	0.00726
x1 = 0.1503	0.0103
x1 = 0.2001	0.0129
x1 = 0.2482	0.0154
x1 = 0.2997	0.0174
x1 = 0.3504	0.019
x1 = 0.3999	0.0204
x1 = 0.4508	0.0211
x1 = 0.4994	0.0217
x1 = 0.5501	0.0217
x1 = 0.5996	0.0213
x1 = 0.6496	0.0204
x1 = 0.7004	0.019
x1 = 0.7495	0.0172
x1 = 0.7998	0.0149
x1 = 0.8501	0.0122
x1 = 0.9	0.00862
x1 = 0.95	0.00457

C=CCCCC [hex-1-ene] + CCCCCCCCCCCC
[2]
Conditions	excess molar enthalpy [kcal/mol]
x1 = 0.0501	0.00512
x1 = 0.0999	0.00975
x1 = 0.15	0.0136
x1 = 0.1999	0.0174
x1 = 0.2521	0.0208
x1 = 0.2994	0.0235
x1 = 0.3494	0.0259
x1 = 0.4001	0.0277
x1 = 0.4503	0.0287
x1 = 0.5001	0.0293
x1 = 0.5505	0.0294
x1 = 0.5998	0.029
x1 = 0.6501	0.0278
x1 = 0.6999	0.026
x1 = 0.7499	0.0234
x1 = 0.8001	0.02
x1 = 0.8503	0.0162
x1 = 0.8999	0.0117
x1 = 0.95	0.00626

CCCCCCCC [octane]
Conditions	mass density [kg/m3]
[1]	698.72

CCCCCCCCCCCCCC [tetradecane]
Conditions	mass density [kg/m3]
[1]	759.36

CCCCCCCCCCCCCC [tetradecane] + C=CCCCC
[2]
Conditions	excess molar enthalpy [kcal/mol]
x2 = 0.05	0.00618
x2 = 0.1001	0.0124
x2 = 0.1501	0.0179
x2 = 0.2003	0.0228
x2 = 0.2499	0.0271
x2 = 0.297	0.0305
x2 = 0.3497	0.0339
x2 = 0.4002	0.0363
x2 = 0.4498	0.0376
x2 = 0.5	0.0386
x2 = 0.5497	0.0387
x2 = 0.5998	0.038
x2 = 0.6495	0.0364
x2 = 0.6996	0.0339
x2 = 0.7502	0.0306
x2 = 0.7996	0.0264
x2 = 0.8498	0.0211
x2 = 0.8999	0.015
x2 = 0.95	0.00747
